This experiment addresses PDE-5 (UniProt O76074). Description: In vitro PDE inhibitory activity against PDE5 (batch method or scintillation proximity assay). The conditions noted are these: representative compounds. The class given is biochemical, human. On the technique in general: Scintillation proximity formats need no separation of bound from free tracer.

Read-outs that look alike come from different tables or passages of the source.

Usually IC50 stands for the concentration needed to halve the response being measured. Regarding `CCOCCn1nc(C(=O)NS(C)(=O)=O)c2nc(N(C)CC)nc(Nc3cccc(C)n3)c21` [Example 149], under “read-out: IC50”, the IC50 is 14.4 nM.
The same measure, in the same setting: with `CCOCCn1nc(C(=O)O)c2nc(N(C)CC)nc(Nc3cc(C)nc(C)n3)c21` [Example 74] the figure was 100 nM; with `CCN(CC)c1nc(Nc2cc(C)ccn2)c2c(n1)c(C(=O)NS(C)(=O)=O)nn2CCOCCCF` [Example 177], 0.17 nM; with `Cc1ccnc(Nc2nc(N(C)C)nc3c(C(=O)O)nn(CCOC(C)C)c23)c1` [Example 61], 13.1 nM.
`CCOCCn1nc(C(=O)O)c2nc(N(C)C)nc(Nc3cc(C)ccc3F)c21` [Example 100]: for the setting “read-out: IC50”, the IC50 came to 3.48 nM.
Consider `CCN(C)c1nc(Nc2cc(C)ccn2)c2c(n1)c(C(=O)O)nn2CC1CCOCC1` [Example 58], for which 100 nM corresponded to half-maximal inhibition (IC50).
On to `CCOCCn1nc(C(=O)O)c2nc(N(C)C(C)C)nc(Nc3cc(C)ncn3)c21` [Example 123], for which the IC50 (read-out: IC50) came to 0.628 nM.
In the case of `Cc1ccnc(Nc2nc(N(C)C(C)C)nc3c(C(=O)O)nn(CCOC(C)C)c23)c1` [Example 111, 1-(2-Isopropoxyethyl)-5-(N-isopropyl-N-methylamino)-7-(4-methylpyridin-2-ylamino)-1H-pyrazolo[4,3-d]pyrimidine-3-carboxylic acid], where the note is “read-out: IC50”, the IC50 was determined as 0.502 nM.
Same read-out and setting: with `Cc1ccnc(Nc2nc(N(C)C3CCC3)nc3c(C(=O)O)nn(CCOCC(F)(F)F)c23)c1` [Example 130, 5-[Cyclobutyl(methyl)amino]-7-[(4-methylpyridin-2-yl)amino]-1-[2-(2,2,2-trifluoroethoxy)ethyl]-1H-pyrazolo[4,3-d]pyrimidine-3-carboxylic acid] the figure was 19.5 nM; with `CCOCCn1nc(C(=O)O)c2nc(N(C)C)nc(Nc3cc(C)c(C)cn3)c21` [Example 41], 3.2 nM; with `CCOCCn1nc(C(=O)O)c2nc(N(C)C(C)C)nc(Nc3ccc(F)c(F)c3)c21` [Example 90], 2.83 nM.
For the compound `CCOCCn1nc(C(=O)OC)c2nc(N(C)C)nc(Nc3cc(C)ccn3)c21` [Example 5], the IC50 (read-out: IC50) is 0.943 nM.
For `Cc1ccnc(Nc2nc(N(C)C(C)C)nc3c(C(=O)NS(C)(=O)=O)nn(CCOCCCF)c23)c1` [Example 176], the IC50 (read-out: IC50) was determined as 0.17 nM.
The same measure, in the same setting: with `CCOCCn1nc(C(=O)O)c2nc(N3CC[C@H](OC)C3)nc(Nc3cc(C)ccn3)c21` [Example 12] the figure was 14.7 nM; with `CCOCCn1nc(C(=O)O)c2nc(N(C)CC)nc(Nc3cc(C)c(C)cn3)c21` [Example 40], 0.167 nM; with `CCN(C)c1nc(Nc2cc(C)ccn2)c2c(n1)c(C(=O)O)nn2CCOCC(F)(F)F` [Example 127, 5-[Ethyl(methyl)amino]-7-[(4-methylpyridin-2-yl)amino]-1-[2-(2,2,2-trifluoroethoxy)ethyl]-1H-pyrazolo[4,3-d]pyrimidine-3-carboxylic acid], 6.34 nM.
As for `COCCn1nc(C(=O)O)c2nc(N(C)C(C)C)nc(Nc3cc(C)ccn3)c21` [Example 22], the IC50 (read-out: IC50) came out at 7.12 nM.
Same read-out and setting: with `CCOCCn1nc(C(=O)O)c2nc(N(C)C(C)C)nc(Nc3cccc(F)c3F)c21` [Example 93] the figure was 23.2 nM; with `CCOCCn1nc(C(=O)O)c2nc(N(C)C(C)C)nc(Nc3ccccn3)c21` [Example 105], 0.741 nM; with `CCOCCn1nc(C(=O)O)c2nc(N(C)C(C)C)nc(Nc3cc(C)ccn3)c21` [Example 110, 1-(2-Ethoxyethyl)-5-(N-isopropyl-N-methylamino)-7-(4-methylpyridin-2-ylamino)-1H-pyrazolo[4,3-d]pyrimidine-3-carboxylic acid], 0.564 nM.
In the case of `CCOCCn1nc(C(=O)O)c2nc(N(C)CC)nc(Nc3cccc(C)n3)c21` [Example 38], the IC50 (read-out: IC50) is 16.7 nM.
Regarding `CCOCCn1nc(C(=O)O)c2nc(N(C)CCOC)nc(Nc3cc(C)ccn3)c21` [Example 17], the IC50 (read-out: IC50) came to 2.93 nM.

The values above are taken from patent US7572799B2, “Pyrazolo[4,3-d]pyrimidines as Phosphodiesterase Inhibitors” (Pfizer Inc, priority 2003, dated 2009).
